We go through seven compounds from US11072612B2, “NLRP3 modulators” (INNATE TUMOR IMMUNITY, INC., priority 2016, dated 2021).

Structures are written as SMILES.

What all share (format): cell-based
One test addresses T1, TLR7 (Homo sapiens, UniProt Q9NYK1).
T1 sequence (Q9NYK1 27-1049): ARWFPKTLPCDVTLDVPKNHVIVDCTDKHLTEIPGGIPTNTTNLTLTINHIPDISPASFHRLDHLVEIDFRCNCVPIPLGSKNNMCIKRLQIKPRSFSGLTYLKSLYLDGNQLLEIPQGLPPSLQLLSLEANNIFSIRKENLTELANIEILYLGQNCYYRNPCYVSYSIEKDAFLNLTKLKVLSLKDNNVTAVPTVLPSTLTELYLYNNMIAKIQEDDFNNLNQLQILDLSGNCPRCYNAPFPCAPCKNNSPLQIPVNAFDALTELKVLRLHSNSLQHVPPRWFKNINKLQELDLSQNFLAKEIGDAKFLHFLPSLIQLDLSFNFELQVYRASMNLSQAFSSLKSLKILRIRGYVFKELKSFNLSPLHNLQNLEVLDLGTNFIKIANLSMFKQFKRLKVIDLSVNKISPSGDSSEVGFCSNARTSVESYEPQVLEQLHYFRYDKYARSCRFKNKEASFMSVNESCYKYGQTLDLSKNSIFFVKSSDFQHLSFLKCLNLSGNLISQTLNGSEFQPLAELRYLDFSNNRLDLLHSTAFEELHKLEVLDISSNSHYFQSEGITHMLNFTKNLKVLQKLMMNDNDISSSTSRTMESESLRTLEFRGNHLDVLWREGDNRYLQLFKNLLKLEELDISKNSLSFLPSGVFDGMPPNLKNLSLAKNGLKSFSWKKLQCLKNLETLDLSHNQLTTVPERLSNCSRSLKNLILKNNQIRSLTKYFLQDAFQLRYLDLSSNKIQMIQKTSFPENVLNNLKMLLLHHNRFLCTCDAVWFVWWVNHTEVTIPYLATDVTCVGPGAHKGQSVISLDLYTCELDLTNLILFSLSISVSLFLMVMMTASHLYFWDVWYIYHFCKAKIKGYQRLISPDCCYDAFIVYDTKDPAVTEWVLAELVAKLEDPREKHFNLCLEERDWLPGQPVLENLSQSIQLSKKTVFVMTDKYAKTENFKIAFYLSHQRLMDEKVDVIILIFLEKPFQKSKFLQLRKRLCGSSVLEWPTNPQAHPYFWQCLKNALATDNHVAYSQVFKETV
In words: TLR7 EC50 assay. To be noted: Table 2.

The target of a further test is T2, hNLRP3 (Homo sapiens, UniProt Q96P20).
T2 construct: THP-1 cells were purchased from the American Type Culture Collection; host or cells: THP-1 cells, PMA-differentiated
Briefly: hNLRP3 agonist assay: IL-1β production in PMA-differentiated THP-1 cells (ELISA). To be noted: Table 2, 4 hours, IL-1β by ELISA.

The next test addresses T3, TLR8 (Homo sapiens, UniProt Q9NR97).
T3 sequence (Q9NR97 27-1041): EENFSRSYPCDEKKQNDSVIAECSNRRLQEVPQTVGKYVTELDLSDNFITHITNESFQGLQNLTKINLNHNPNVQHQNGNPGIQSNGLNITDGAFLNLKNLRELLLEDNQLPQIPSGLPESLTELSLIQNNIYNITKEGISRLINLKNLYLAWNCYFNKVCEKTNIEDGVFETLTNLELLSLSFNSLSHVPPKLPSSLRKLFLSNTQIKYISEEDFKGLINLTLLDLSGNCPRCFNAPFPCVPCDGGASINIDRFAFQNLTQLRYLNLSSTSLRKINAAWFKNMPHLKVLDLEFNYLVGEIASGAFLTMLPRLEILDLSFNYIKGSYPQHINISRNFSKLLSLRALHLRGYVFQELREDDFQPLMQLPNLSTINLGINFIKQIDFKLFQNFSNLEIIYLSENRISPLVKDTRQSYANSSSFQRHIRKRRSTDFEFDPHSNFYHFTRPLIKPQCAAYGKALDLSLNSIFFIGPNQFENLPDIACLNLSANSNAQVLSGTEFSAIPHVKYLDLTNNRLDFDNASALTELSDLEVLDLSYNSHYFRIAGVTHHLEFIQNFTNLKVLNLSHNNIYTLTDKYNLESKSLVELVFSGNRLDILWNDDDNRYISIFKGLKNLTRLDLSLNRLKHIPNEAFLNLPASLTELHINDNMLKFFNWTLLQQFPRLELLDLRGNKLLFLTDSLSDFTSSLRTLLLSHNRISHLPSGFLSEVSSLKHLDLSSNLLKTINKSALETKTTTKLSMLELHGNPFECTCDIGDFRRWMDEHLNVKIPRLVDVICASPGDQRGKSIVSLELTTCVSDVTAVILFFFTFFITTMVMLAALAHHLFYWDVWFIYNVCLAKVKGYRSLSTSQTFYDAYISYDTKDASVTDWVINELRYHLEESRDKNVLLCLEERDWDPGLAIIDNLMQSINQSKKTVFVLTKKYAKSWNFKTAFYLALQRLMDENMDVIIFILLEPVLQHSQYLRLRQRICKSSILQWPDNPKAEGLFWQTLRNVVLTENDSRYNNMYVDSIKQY
In words: TLR8 EC50 assay. The settings on record: Table 2.

Broadly, the EC50 is the concentration that produces a half-maximal response. A higher EC50 goes with a less potent agent.

T2 sequence (Q96P20 whole entry): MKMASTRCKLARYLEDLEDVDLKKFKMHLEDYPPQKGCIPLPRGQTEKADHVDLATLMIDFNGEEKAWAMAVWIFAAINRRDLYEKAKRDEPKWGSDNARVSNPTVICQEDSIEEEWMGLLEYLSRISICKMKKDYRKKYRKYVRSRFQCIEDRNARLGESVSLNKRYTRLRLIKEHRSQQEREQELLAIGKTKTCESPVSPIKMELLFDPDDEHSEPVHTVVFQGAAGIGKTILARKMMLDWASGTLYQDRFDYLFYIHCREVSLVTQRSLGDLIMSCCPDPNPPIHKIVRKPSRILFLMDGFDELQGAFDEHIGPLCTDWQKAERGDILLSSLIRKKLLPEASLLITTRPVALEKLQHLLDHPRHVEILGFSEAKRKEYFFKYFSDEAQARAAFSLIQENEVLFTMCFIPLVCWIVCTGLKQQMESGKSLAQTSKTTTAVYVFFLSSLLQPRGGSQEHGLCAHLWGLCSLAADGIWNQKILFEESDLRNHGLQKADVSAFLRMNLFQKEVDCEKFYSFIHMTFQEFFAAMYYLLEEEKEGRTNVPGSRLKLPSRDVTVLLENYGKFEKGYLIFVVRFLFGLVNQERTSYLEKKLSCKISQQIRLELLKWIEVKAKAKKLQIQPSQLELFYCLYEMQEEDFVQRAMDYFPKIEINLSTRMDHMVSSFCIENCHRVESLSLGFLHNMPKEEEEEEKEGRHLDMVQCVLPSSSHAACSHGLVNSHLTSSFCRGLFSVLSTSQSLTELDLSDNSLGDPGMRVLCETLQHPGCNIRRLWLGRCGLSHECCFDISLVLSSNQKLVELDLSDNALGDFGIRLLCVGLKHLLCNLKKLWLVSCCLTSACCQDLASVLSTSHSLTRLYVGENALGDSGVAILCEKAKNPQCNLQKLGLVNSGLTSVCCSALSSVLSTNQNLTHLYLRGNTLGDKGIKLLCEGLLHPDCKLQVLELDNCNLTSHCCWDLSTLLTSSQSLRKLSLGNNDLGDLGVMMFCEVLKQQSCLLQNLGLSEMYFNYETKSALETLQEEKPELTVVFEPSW

In the case of `COc1cccc(-c2ccc3c(c2)nc(N)c2nc(CCCO)[nH]c23)c1` [Compound 206, 3-[4-amino-7-(3-methoxyphenyl)-1H-imidazo[4,5-c]quinolin-2-yl]propan-1-ol], the EC50 on TLR7, on hNLRP3 and at TLR8 was over 100 µM in each case.
`Cc1cc2nc(N)c3nc(CCCO)[nH]c3c2cc1F` [Compound 128]: the EC50 at TLR7 is over 100 µM; at hNLRP3 it was 20 to 100 µM; at TLR8, 20 to 100 µM.
For `CN(CCCc1nc2c(N)nc3cc(-c4cncnc4)ccc3c2[nH]1)C(=O)OC(C)(C)C` [Compound 123], the EC50 is over 100 µM at TLR7, 1 to 20 µM at hNLRP3 and over 100 µM at TLR8.
As for `Cc1ncc(-c2ccc3c(c2)nc(N)c2nc(CCCO)[nH]c23)cn1` [Compound 155, 3-[4-amino-7-(2-methylpyrimidin-5-yl)-1H-imidazo[4,5-c]quinolin-2-yl]propan-1-ol], the values for the EC50 at TLR7, at hNLRP3 and on TLR8 were over 100 µM, 1 to 20 µM and over 100 µM, respectively.
In the case of `Nc1nc2ccccc2c2[nH]c([C@H]3CC[C@@H](O)CC3)nc12` [Compound 134], the EC50 on TLR7 was over 100 µM; at hNLRP3, 20 to 100 µM; at TLR8, over 100 µM.
For the compound `Nc1nc2cc(-c3cccc(F)c3)ccc2c2[nH]c(CCCO)nc12` [Compound 208, 3-[4-amino-7-(3-fluorophenyl)-1H-imidazo[4,5-c]quinolin-2-yl]propan-1-ol], the EC50 on TLR7, on hNLRP3 and on TLR8 was over 100 µM each time.
For the compound `Nc1nc2ccccc2c2[nH]c([C@H]3C[C@@H](O)C3)nc12` [Compound 132], the EC50 at TLR7 is over 100 µM; on hNLRP3, 20 to 100 µM; at TLR8, over 100 µM.
